Reference: patent US10662187B2, “Bruton's tyrosine kinase inhibitors” (Zibo Biopolar Changsheng Pharmaceutical Co. Ltd., priority 2016, dated 2020)

Biological target: BTK (Homo sapiens (Human), UniProt Q06187)
Test: Btk kinase assay (HTRF)
Type: biochemical
Conditions: [ATP]=80 μM, BTK=3.4 nM; read-out: BTK Inhibition
Description: Btk Kinase Assay and Other Kinases Assay Btk kinase activity was determined using a homogenous time resolved fluorescence (HTRF) methodology. Measurements were performed in a reaction volume of 15 μL using 384-well assay plates. Kinase enzyme, inhibitor, ATP and 1 μM peptide substrate were incubated in a reaction buffer compose of Hepes 50 mM (pH7.0), NaN3 0.02%, BSA 0.01%, Orthocanadate 0.1 mM. […] For each compound, enzyme activity as measured at various concentrations of compound, Negative control reactions were performed in the absence of inhibitor in two replicates and eight no enzyme controls were used to determine baseline fluorescence levels.

Sequence of BTK (Q06187 whole entry, species assumed): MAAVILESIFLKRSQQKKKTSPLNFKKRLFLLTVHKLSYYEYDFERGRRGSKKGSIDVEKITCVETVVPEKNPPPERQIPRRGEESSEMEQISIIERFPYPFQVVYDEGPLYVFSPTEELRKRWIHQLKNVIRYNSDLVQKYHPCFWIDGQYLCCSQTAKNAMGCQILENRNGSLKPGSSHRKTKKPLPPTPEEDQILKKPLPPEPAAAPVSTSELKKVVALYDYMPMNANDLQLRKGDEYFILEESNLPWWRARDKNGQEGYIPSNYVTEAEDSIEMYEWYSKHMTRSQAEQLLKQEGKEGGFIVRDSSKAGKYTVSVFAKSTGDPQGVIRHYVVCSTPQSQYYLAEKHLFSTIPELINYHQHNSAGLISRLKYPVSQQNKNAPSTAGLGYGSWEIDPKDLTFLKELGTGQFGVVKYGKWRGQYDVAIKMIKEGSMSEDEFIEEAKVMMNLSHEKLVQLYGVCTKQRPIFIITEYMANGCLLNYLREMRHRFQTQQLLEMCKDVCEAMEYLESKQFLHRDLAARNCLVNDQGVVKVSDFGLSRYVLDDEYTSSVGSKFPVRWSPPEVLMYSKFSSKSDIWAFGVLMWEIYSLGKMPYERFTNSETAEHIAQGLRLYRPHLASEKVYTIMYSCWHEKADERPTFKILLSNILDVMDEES

IC50 [nM]	SMILES
10 to 100	C=CC(=O)N1CC[C@@H](n2nc(-c3ccc(Oc4cccc5ccccc45)cc3)c3cnccc32)C1 [Compound 7, (R)-1-(3-(3-(4-(naphthalen-1-yloxy)phenyl)-1H-pyrazolo[4,3-c]pyridin-1-yl)pyrrolidin-1-yl)prop-2-en-1-one]
100 to 1000	C=CC(=O)N1CCC[C@@H](n2nc(-c3ccc(Oc4cccc5c4OCO5)cc3)c3cnccc32)C1 [Compound 8, (R)-1-(3-(3-(4-(benzo[d][1,3]dioxol-4-yloxy)phenyl)-1H-pyrazolo[4,3-c]pyridin-1-yl)piperidin-1-yl)prop-2-en-1-one]
10 to 100	C=CC(=O)N1CCC[C@@H](n2nc(-c3ccc(Oc4cccc(Cl)c4)cc3)c3cnccc32)C1 [Compound 9, (R)-1-(3-(3-(4-(3-chlorophenoxy)phenyl)-1H-pyrazolo[4,3-c]pyridin-1-yl)piperidin-1-yl)prop-2-en-1-one]
10 to 100	C=CC(=O)N1CC[C@@H](n2nc(-c3ccc(Oc4cccc(C)c4)cc3)c3cnccc32)C1 [Compound 10, (R)-1-(3-(3-(4-(m-tolyloxy)phenyl)-1H-pyrazolo[4,3-c]pyridin-1-yl)pyrrolidin-1-yl)prop-2-en-1-one]
10 to 100	C=CC(=O)N1CC[C@@H](n2nc(-c3ccc(Oc4cccc(C)c4C)cc3)c3cnccc32)C1 [Compound 12, (R)-1-(3-(3-(4-(2,3-dimethylphenoxy)phenyl)-1H-pyrazolo[4,3-c]pyridin-1-yl)pyrrolidin-1-yl)prop-2-en-1-one]
< 10	C=CC(=O)N1CC[C@@H](n2nc(-c3ccc(Oc4cccc(OC)c4Cl)cc3)c3cnccc32)C1 [Compound 13, (R)-1-(3-(3-(4-(2-chloro-3-methoxyphenoxy)phenyl)-1H-pyrazolo[4,3-c]pyridin-1-yl)pyrrolidin-1-yl)prop-2-en-1-one]
10 to 100	C=CC(=O)N1CC[C@@H](n2nc(-c3ccc(Oc4cccc(F)c4C)cc3)c3cnccc32)C1 [Compound 14, (R)-1-(3-(3-(4-(3-fluoro-2-methylphenoxy)phenyl)-1H-pyrazolo[4,3-c]pyridin-1-yl)pyrrolidin-1-yl)prop-2-en-1-one]
10 to 100	C=CC(=O)N1CCC[C@@H](n2nc(-c3ccc(Oc4cccc(F)c4C)cc3)c3cnccc32)C1 [Compound 16, (R)-1-(3-(3-(4-(3-fluoro-2-methylphenoxy)phenyl)-1H-pyrazolo[4,3-c]pyridin-1-yl)piperidin-1-yl)prop-2-en-1-one]
< 10	C=CC(=O)N1CCC[C@@H](n2nc(-c3ccc(Oc4cccc(C)c4C)cc3)c3cnccc32)C1 [Compound 24, (R)-1-(3-(3-(4-(2,3-dimethylphenoxy)phenyl)-1H-pyrazolo[4,3-c]pyridin-1-yl)piperidin-1-yl)prop-2-en-1-one]
< 10	C=CC(=O)N1CC2(CC(n3nc(-c4ccc(Oc5cccc(OC)c5F)cc4)c4cnccc43)C2)C1 [Compound 26, 1-(6-(3-(4-(2-fluoro-3-methoxyphenoxy)phenyl)-1H-pyrazolo[4,3-c]pyridin-1-yl)-2-azaspiro[3.3]heptan-2-yl)prop-2-en-1-one]
10 to 100	C=CC(=O)N1CC[C@@H](n2nc(-c3ccc(Oc4cccc5c4CCC5)cc3)c3cnccc32)C1 [Compound 31, (R)-1-(3-(3-(4-((2,3-dihydro-1H-inden-4-yl)oxy)phenyl)-1H-pyrazolo[4,3-c]pyridin-1-yl)pyrrolidin-1-yl)prop-2-en-1-one]
< 10	C=CC(=O)N1CCC[C@@H](n2nc(-c3ccc(Oc4ccccc4)cc3)c3cnccc32)C1 [Compound 33, (R)-1-(3-(3-(4-phenoxyphenyl)-1H-pyrazolo[4,3-c]pyridin-1-yl)piperidin-1-yl)prop-2-en-1-one]
10 to 100	C=CC(=O)N1CC[C@H](n2nc(-c3ccc(Oc4cccc(Cl)c4)cc3)c3cnccc32)C1 [Compound 36, (S)-1-(3-(3-(4-(3-chlorophenoxy)phenyl)-1H-pyrazolo[4,3-c]pyridin-1-yl)pyrrolidin-1-yl)prop-2-en-1-one]
10 to 100	C=CC(=O)N1CCC[C@H](n2nc(-c3ccc(Oc4cccc(C)c4)cc3)c3cnccc32)C1 [Compound 37, (S)-1-(3-(3-(4-(m-tolyloxy)phenyl)-1H-pyrazolo[4,3-c]pyridin-1-yl)piperidin-1-yl)prop-2-en-1-one]
10 to 100	C=CC(=O)N1CC[C@@H](n2nc3ccncc3c2-c2ccc(Oc3cccc(F)c3Cl)cc2)C1 [Compound 38, (R)-1-(3-(3-(4-(2-chloro-3-fluorophenoxy)phenyl)-2H-pyrazolo[4,3-c]pyridin-2-yl)pyrrolidin-1-yl)prop-2-en-1-one]
10 to 100	C=CC(=O)N1CCC[C@H](n2nc(-c3ccc(Oc4cccc(F)c4Cl)cc3)c3cnccc32)C1 [Compound 40, (S)-1-(3-(3-(4-(2-chloro-3-fluorophenoxy)phenyl)-1H-pyrazolo[4,3-c]pyridin-1-yl)piperidin-1-yl)prop-2-en-1-one]
< 10	C=CC(=O)N1CC[C@H](n2nc(-c3ccc(Oc4cccc(Cl)c4Cl)cc3)c3cnccc32)C1 [Compound 42, (S)-1-(3-(3-(4-(2,3-dichlorophenoxy)phenyl)-1H-pyrazolo[4,3-c]pyridin-1-yl)pyrrolidin-1-yl)prop-2-en-1-one]
< 10	C=CC(=O)N1CCC[C@H](n2nc(-c3ccc(Oc4cccc(Cl)c4Cl)cc3)c3cnccc32)C1 [Compound 44, (S)-1-(3-(3-(4-(2,3-dichlorophenoxy)phenyl)-1H-pyrazolo[4,3-c]pyridin-1-yl)piperidin-1-yl)prop-2-en-1-one]
< 10	C=CC(=O)N1CC[C@@H](n2nc(-c3ccc(Oc4cccc(C)c4F)cc3)c3cnccc32)C1 [Compound 47, (R)-1-(3-(3-(4-(2-fluoro-3-methylphenoxy)phenyl)-1H-pyrazolo[4,3-c]pyridin-1-yl)pyrrolidin-1-yl)prop-2-en-1-one]

The remaining lines, values behind:

SMILES	IC50 [nM]
C=CC(=O)N1CC[C@@H](n2nc(-c3ccc(Oc4cccc(OC)c4F)cc3)c3cncc(C)c32)C1 [Compound 5, (R)-1-(3-(3-(4-(2-fluoro-3-methoxyphenoxy)phenyl)-7-methyl-1H-pyrazolo [4,3-c]pyridin-1-yl)pyrrolidin-1-yl) prop-2-en-1-one]	< 10
C=CC(=O)N1CCC(Cn2nc(-c3ccc(Oc4ccccc4)cc3)c3cnccc32)C1 (centres unmarked) [Compound 21, 1-(3-((3-(4-phenoxyphenyl)-1H-pyrazolo[4,3-c]pyridin-1-yl)methyl)pyrrolidin-1-yl)prop-2-en-1-one]	10 to 100
C=CC(=O)Nc1cccc(-n2nc(-c3ccc(Oc4ccccc4)cc3)c3cnccc32)c1 [Compound 22, N-(3-(3-(4-phenoxyphenyl)-1H-pyrazolo[4,3-c]pyridin-1-yl)phenyl)acrylamide]	10 to 100
C=CC(=O)N1CCC[C@@H](n2nc(-c3ccc(Oc4cccc(OC(C)C)c4)cc3)c3cnccc32)C1 [Compound 23, (R)-1-(3-(3-(4-(3-isopropoxyphenoxy)phenyl)-1H-pyrazolo[4,3-c]pyridin-1-yl)piperidin-1-yl)prop-2-en-1-one]	10 to 100
CC#CC(=O)N1CCC[C@@H](n2nc(-c3ccc(Oc4cccc(OC)c4Cl)cc3)c3cnccc32)C1 [Compound 25, (R)-1-(3-(3-(4-(2-chloro-3-methoxyphenoxy)phenyl)-1H-pyrazolo[4,3-c]pyridin-1-yl)piperidin-1-yl)but-2-yn-1-one]	100 to 1000
C=CC(=O)N1CC[C@@H](n2nc(-c3ccc(Oc4cccc(OC)c4F)cc3)c3cncc(Cl)c32)C1 [Compound 27, (R)-1-(3-(7-chloro-3-(4-(2-fluoro-3-methoxyphenoxy)phenyl)-1H-pyrazolo[4,3-c]pyridin-1-yl)pyrrolidin-1-yl)prop-2-en-1-one]	10 to 100
C=CC(=O)N1CC[C@@H](n2nc(-c3ccc(Oc4cccc(OC)c4F)cc3)c3cncc(C#N)c32)C1 [Compound 28, (R)-1-(1-acryloylpyrrolidin-3-yl)-3-(4-(2-fluoro-3-methoxyphenoxy)phenyl)-1H-pyrazolo[4,3-c]pyridine-7-carbonitrile]	< 10
C=CC(=O)N1CCC[C@@H](n2nc(-c3ccc(OC4CCCCC4)cc3)c3cnccc32)C1 [Compound 29, (R)-1-(3-(3-(4-(cyclohexyloxy)phenyl)-1H-pyrazolo[4,3-c]pyridin-1-yl)piperidin-1-yl)prop-2-en-1-one]	10 to 100
C=CC(=O)N1CC2(CC(n3nc(-c4ccc(Oc5cccc(OC)c5Cl)cc4)c4cnccc43)C2)C1 [Compound 30, 1-(6-(3-(4-(2-chloro-3-methoxyphenoxy)phenyl)-1H-pyrazolo[4,3-c]pyridin-1-yl)-2-azaspiro[3.3]heptan-2-yl)prop-2-en-1-one]	100 to 1000
C=CC(=O)N1CCC[C@H](n2nc(-c3ccc(Oc4ccccc4)c(Cl)c3)c3cnccc32)C1 [Compound 35, (S)-1-(3-(3-(3-chloro-4-phenoxyphenyl)-1H-pyrazolo[4,3-c]pyridin-1-yl)piperidin-1-yl)prop-2-en-1-one]	10 to 100
C=CC(=O)N1CCC[C@@H](n2nc3ccncc3c2-c2ccc(Oc3cccc(F)c3Cl)cc2)C1 [Compound 39, (R)-1-(3-(3-(4-(2-chloro-3-fluorophenoxy)phenyl)-2H-pyrazolo[4,3-c]pyridin-2-yl)piperidin-1-yl)prop-2-en-1-one]	10 to 100
C=CC(=O)N1CC[C@@H](n2nc(-c3ccc(Oc4cccc(OC)c4F)cc3)c3c2CCN(C(C)=O)C3)C1 [Compound 45, (R)-1-(3-(5-acetyl-3-(4-(2-fluoro-3-methoxyphenoxy)phenyl)-4,5,6,7-tetrahydro-1H-pyrazolo[4,3-c]pyridin-1-yl)pyrrolidin-1-yl)prop-2-en-1-one]	1000 to 10000
C=CC(=O)N1CCc2c(c(-c3ccc(Oc4cccc(OC)c4F)cc3)nn2[C@@H]2CCN(C(=O)C=C)C2)C1 [Compound 46, (R)-1-(3-(5-acryloyl-3-(4-(2-fluoro-3-methoxyphenoxy)phenyl)-4,5,6,7-tetrahydro-1H-pyrazolo[4,3-c]pyridin-1-yl)pyrrolidin-1-yl)prop-2-en-1-one]	> 10000
